Legend:
Format in all cases: in vivo
[1] = system: barnyardgrass (Echinochloa crus-galli); experiment: Test A preemergence, barnyardgrass; conditions: Preemergence; for Plant response rating, Barnyardgrass: 31 g ai/ha, visual injury, 0 to 100 scale (0 no effect, 100 complete control), approx. 10 days; for Barnyardgrass plant response rating: 125 g ai/ha, visual injury on 0 to 100 scale (0 no effect, 100 complete control), approximately 10 days
Outline: (§1)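 Test chemicals, formulated in a non-phytotoxic solvent mixture with surfactant, were sprayed postemergence on plants 2 to 10 cm tall at the one- to two-leaf stage. Preemergence treatment was a directed soil spray onto freshly seeded pots. Both used a loam soil and sand blend.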

kochia (Bassia scoparia) [2] = experiment: Test A preemergence, kochia; conditions: Preemergence; for Plant response rating, Kochia: 31 g ai/ha, visual injury, 0 to 100 scale (0 no effect, 100 complete control), approx. 10 days; for Kochia plant response rating: 125 g ai/ha, visual injury on 0 to 100 scale (0 no effect, 100 complete control), approximately 10 days
Outline: as §1

[3] = system: ragweed (common ragweed, Ambrosia artemisiifolia); experiment: Test A preemergence, ragweed; conditions: Preemergence; for Plant response rating, Ragweed: 31 g ai/ha, visual injury, 0 to 100 scale (0 no effect, 100 complete control), approx. 10 days; for Ragweed plant response rating: 125 g ai/ha, visual injury on 0 to 100 scale (0 no effect, 100 complete control), approximately 10 days
Outline: as §1

[4] = system: Ryegrass, Italian (Italian ryegrass, Lolium multiflorum); experiment: Test A preemergence, Ryegrass, Italian; conditions: Preemergence; for Plant response rating, Ryegrass, Italian: 31 g ai/ha, visual injury, 0 to 100 scale (0 no effect, 100 complete control), approx. 10 days; for Ryegrass, Italian plant response rating: 125 g ai/ha, visual injury on 0 to 100 scale (0 no effect, 100 complete control), approximately 10 days
Outline: as §1

[5] = system: Foxtail, Giant (giant foxtail, Setaria faberi); experiment: Test A preemergence, Foxtail, Giant; conditions: Preemergence; for Plant response rating, Foxtail, Giant: 31 g ai/ha, visual injury, 0 to 100 scale (0 no effect, 100 complete control), approx. 10 days; for Foxtail, Giant plant response rating: 125 g ai/ha, visual injury on 0 to 100 scale (0 no effect, 100 complete control), approximately 10 days
Outline: as §1

[6] = system: pigweed (Amaranthus retroflexus); experiment: Test A preemergence, pigweed; conditions: for Plant response rating, Pigweed: 31 g ai/ha, visual injury, 0 to 100 scale (0 no effect, 100 complete control), approx. 10 days; for Pigweed plant response rating: 125 g ai/ha, visual injury on 0 to 100 scale (0 no effect, 100 complete control), approximately 10 days
Outline: (§2)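 After sowing into a sand-amended loam, pots for the preemergence test were treated by spraying directly onto soil. In parallel, seedlings at the one- to two-leaf stage and 2 to 10 cm tall were treated postemergence with the identical surfactant-containing formulation.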

[7] = system: barnyardgrass (Echinochloa crus-galli); experiment: Test A postemergence, barnyardgrass; conditions: Postemergence, 0 to 100 scale (0 no effect, 100 complete control)
Outline: as §2

kochia (Bassia scoparia) [8] = experiment: Test A postemergence, kochia; conditions: Postemergence
Outline: as §1

[9] = system: ragweed (common ragweed, Ambrosia artemisiifolia); experiment: Test A postemergence, ragweed; conditions: Postemergence
Outline: as §1

[10] = system: Ryegrass, Italian (Italian ryegrass, Lolium multiflorum); experiment: Test A postemergence, Ryegrass, Italian; conditions: Postemergence
Outline: as §1

[11] = system: Foxtail, Giant (giant foxtail, Setaria faberi); experiment: Test A postemergence, Foxtail, Giant; conditions: Postemergence
Outline: as §1

[12] = system: pigweed (Amaranthus retroflexus); experiment: Test A postemergence, pigweed; conditions: Postemergence
Outline: as §1

[13] = system: wheat (Triticum aestivum); experiment: Test A postemergence, wheat; conditions: Postemergence
Outline: as §2

corn (Zea mays) = experiment: Test A postemergence, corn; conditions: Postemergence
Outline: as §1

[14] = system: blackgrass (Alopecurus myosuroides); experiment: Test A postemergence, blackgrass; conditions: Postemergence, 0 to 100 scale (0 no effect, 100 complete control)
Outline: as §1

[15] = system: galium (catchweed bedstraw, Galium aparine); experiment: Test A postemergence, galium; conditions: Postemergence
Outline: as §2

[16] = 31 g ai/ha, visual injury on 0 to 100 scale (0 no effect, 100 complete control), approx. 10 days
[17] = 125 g ai/ha, 0 to 100 scale (0 no effect, 100 complete control)

Structure (SMILES)	Plant response rating, Barnyardgrass [1]	Barnyardgrass plant response rating [1]	Plant response rating, Kochia (kochia (Bassia scoparia) [2])	Kochia plant response rating (kochia (Bassia scoparia) [2])	Plant response rating, Ragweed [3]	Ragweed plant response rating [3]	Plant response rating, Ryegrass, Italian [4]	Ryegrass, Italian plant response rating [4]	Plant response rating, Foxtail, Giant [5]	Foxtail, Giant plant response rating [5]	Plant response rating, Pigweed [6]	Pigweed plant response rating [6]	Plant response rating, Barnyardgrass ([7]; 31 g ai/ha)	Plant response rating, Barnyardgrass ([7]; 125 g ai/ha)	Plant response rating, Kochia (kochia (Bassia scoparia) [8]; [16])	Plant response rating, Kochia (kochia (Bassia scoparia) [8]; [17])	Plant response rating, Ragweed [9, 16]	Plant response rating, Ragweed [9, 17]	Plant response rating, Ryegrass, Italian [10, 16]	Plant response rating, Ryegrass, Italian [10, 17]	other results
Cc1cc(C)c(N(COC(=O)C2CCCCC2)S(=O)(=O)C(F)(F)F)cc1C1=NOC2(CCCC2)C1 [Compound 148]	20	80	20	30	0	20	30	100	40	100	30	100	0	10	0	20	0	0	0	0	Plant response rating, Foxtail, Giant [11, 16]: 0; Plant response rating, Foxtail, Giant [11, 17]: 0; Plant response rating, Pigweed [12, 16]: 40; Plant response rating, Pigweed [12, 17]: 40; Plant response rating, Wheat [13, 16]: 0; Plant response rating, Wheat [13, 17]: 0; Plant response rating, Corn (corn (Zea mays); [16]): 0; Plant response rating, Corn (corn (Zea mays); [17]): 0; Plant response rating, Blackgrass ([14]; 31 g ai/ha): 0; Plant response rating, Blackgrass ([14]; 125 g ai/ha): 0; Plant response rating, Galium [15, 16]: 0; Plant response rating, Galium [15, 17]: 20
Cc1cc(C)c(N(COC(=O)c2ccccc2)S(=O)(=O)C(F)(F)F)cc1C1=NOC2(CCCC2)C1 [Compound 149]	0	0	0	0	0	0	50	50	30	80	30	70	10	40	0	10	0	20	0	0	Plant response rating, Foxtail, Giant [11, 16]: 0; Plant response rating, Foxtail, Giant [11, 17]: 30; Plant response rating, Pigweed [12, 16]: 0; Plant response rating, Pigweed [12, 17]: 40; Plant response rating, Wheat [13, 16]: 0; Plant response rating, Wheat [13, 17]: 0; Plant response rating, Corn (corn (Zea mays); [16]): 0; Plant response rating, Corn (corn (Zea mays); [17]): 0; Plant response rating, Blackgrass ([14]; 31 g ai/ha): 0; Plant response rating, Blackgrass ([14]; 125 g ai/ha): 20; Plant response rating, Galium [15, 16]: 0; Plant response rating, Galium [15, 17]: 60

Source: patent publication US20230278972A1, “SUBSTITUTED HALOALKYL SULFONANILIDE HERBICIDES” (FMC Corporation, priority 2020, published 2023)
